Test results from patent US20090023186A1, “USE OF VALPROIC ACID FOR ENHANCING PRODUCTION OF RECOMBINANT PROTEINS IN MAMMALIAN CELLS” (EXCELLGENE SA, priority 2007, published 2009).

How the values were obtained:
HEK293E cells = assay: Stable cell lines, IgG batch titer by ELISA (Example 5); assay type: cell-based, Human; conditions: 4 mmol/l final VPA; stable mass culture; 5 days after VPA addition
Procedure: 20 million suspension-adapted HEK293E cells were resuspended in 1 ml of Ex-Cell 293 HEK 293 serum-free medium with 4 mmol/l L-glutamine (Cat. No. 14571C-1000M; Lot No. 6A0093; SAFC Biosciences, Lenexa, Kans., USA, “Ex-Cell” medium; note: “Ex-Cell” medium-as used herein-refers to a medium comprising 4 mmol/l L-glutamine) in a 50-ml filter tube each (TPP AG, Trasadingen, Switzerland; Cat. No. 87050, Lot 20050174). Then 50 μg plasmid DNA at a concentration of 1 μg/μl was added in each tube with the following composition 5% (2.5 μg) p-LC (SEQ ID NO: 1) 5% (2.5 μg) p-HC (SEQ ID NO: 3) 90% (45 μg) p-puro (SEQ ID NO: 13). Plasmid p-LC comprises the genetic information for the production of the light chain of an IgG antibody, plasmid p-HC comprises the genetic information for the production of the heavy chain of an IgG antibody, plasmid p-puro comprises the genetic information for the enzyme puromycin-N-acetyl-transferase, which is encoded by the pac gene, the puromycin resistance gene. […] In short, Goat anti-human kappa light chain IgG (Biosource) was used for coating the ELISA-plates, and with AP-conjugated goat anti-human gamma chain IgG (Biosource) the synthesized IgG1 was detected. […] Absorption was measured at 405 nm against 490 nm using a microplate reader (SPECTRAmaxTM340; Molecular Devices, Palo Alto, Calif., USA).

CHO DG44 cells = assay: Influence of temperature on IgG batch titer and comparison with sodium butyrate (Example 2); assay type: cell-based, Chinese Hamster; conditions: day 5 after transfection
Procedure: No. 14571C-[…]; Lot No. 6A0093; SAFC Biosciences, Lenexa, Kans., USA, “Ex-Cell” medium; note: “Ex-Cell” medium-as used herein-refers to a medium comprising 4 mmol/l L-glutamine) in a 50-ml filter tube each (TPP AG, Trasadingen, Switzerland; Cat. No. 87050, Lot 20050174). In a separate set, 10 million suspension-adapted CHO DG44 cells were resuspended in 0.5 ml of ProCHO5 serum-free medium with 4 mmol/[…] hypoxanthine and 0.194 g/l thymidine (BioWhittaker (Lonza), Belgium; Cat. No. BE12-[…]; Lot No. 7 MB0040; “ProCHO5” medium; note: “ProCHO5” medium-as used herein-refers to a medium comprising 4 mmol/[…] hypoxanthine and 0.194 g/l thymidine) in a 50-ml filter tube each (TPP AG, Trasadingen, Switzerland; Cat. No. 87050, Lot 20050174). Then 12.5 μg plasmid DNA at a concentration of 1 μg/μl was added in each tube with the following composition 50% (6.25 μg) p-LC (SEQ ID NO: 1) 50% (6.25 μg) p-HC (SEQ ID NO: 3). Plasmid p-LC comprises the genetic information for the production of the light chain of an IgG antibody, plasmid p-HC comprises the genetic information for the production of the heavy chain of an IgG antibody. The particular vector constructs used in the present invention can also be obtained from the inventors. The inventors can be contacted via e-mail at […]. Moreover, commercial services do exist that produce any desired nucleotide sequence even comprising several kilobase pairs including complete expression cassettes in plasmid backgrounds (e.g., Invitrogen, Carlsbad, USA; Geneart, Germany.) Thus, providing the genetic sequence information of the plasmids should enable one of ordinary skill in the art to order the plasmids of the present invention at one of the commercial services listed. After shortly mixing the DNA with the cells by gentle shaking, 25 μg of 25-kd linear polyethyleneimine (“PEI”; Polysciences, Eppelheim, Germany; [2]) were added at a concentration of 1 μg/μl to each of the tubes. After shortly mixing by gentle shaking, the filter tubes containing the cells together with the DNA and PEI were transferred into an orbital shaker (Kühner Shaker Cabinet ISF-4-W, “Kühner shaker”, Kühner AG, Birsfelden, Switzerland), and the cells were incubated for 4 hours at 37° C. in a 5% CO2 atmosphere under shaking at 180 rpm. After that time, 4.5 ml of Ex-Cell medium were added to each of the filter tubes containing HEK 293 cells and 4.5 ml of Pro-CHO5 were added to each of the filter tubes containing CHO DG44 cells. […] No. […] Sigma-Aldrich Chemie GmbH, Industriestrasse 25, CH-9471 Buchs SG) was added to the corresponding tubes at the corresponding final concentrations. The cells then were returned into the Kühner shaker. Half the tubes were incubated at 37° C. in a 5% CO2 atmosphere under shaking at 180 rpm, the other half was incubated at 31° C. […] The ELISA was performed as published in prior art. In short, Goat anti-human kappa light chain IgG (Biosource) was used for coating the ELISA-plates, and with AP-conjugated goat anti-human gamma chain IgG (Biosource) the synthesized IgG1 was detected. NPP was used as a substrate for the alkaline phosphatase. Absorption was measured at 405 nm against 490 nm using a microplate reader (SPECTRAmaxTM340; Molecular Devices, Palo Alto, Calif., USA).

[1] = 3.8 mmol/l VPA, relative to control = 1

CCCC(CCC)C(=O)O [VPA, valproic acid]
Batch titer HEK293E (HEK293E cells): 47.8 ± 4.8 mg/L
Batch titer increase at 31° C. (CHO DG44 cells; [1]): 1.5 ± 0.1
Batch titer increase at 37° C. (CHO DG44 cells; [1]): 2.1 ± 0.1
performance compared with sodium butyrate (batch titer increase) (CHO DG44 cells; 31° C. and 37° C.): slightly better performance than sodium butyrate
